Measured values published in PubChem BioAssay AID248 (DTP/NCI, 2004).
“And” between values parts separate entries of the source, which are not always exact repeats. Identical values can stand only once. Toxic doses and inconclusive results are not listed. No stated cut-off is given here; in the data, active means T/C of 150% or more; inactive means T/C below 125%.

Test system: L1210 leukemia ip in BDF1 mice, survival T/C
Assay: NCI In Vivo Anticancer Drug Screen. Data for tumor model L1210 Leukemia (intraperitoneal) in B6D2F1 (BDF1) mice
Conditions: endpoint: mean survival time, higher = longer survival
Outline: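 Transplantable tumor model; survival measured in treated vs vehicle control mice. Value = treated/control.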

[1] = dose: 50.0 mg/kg/injection, schedule: Q01DX001 (ip), vehicle: saline
[2] = dose: 100.0 mg/kg/injection, schedule: Q01DX001 (ip), vehicle: saline
[3] = dose: 200.0 mg/kg/injection, schedule: Q01DX001 (ip), vehicle: saline
[4] = dose: 400.0 mg/kg/injection, schedule: Q01DX001 (ip), vehicle: saline
[5] = dose: 100.0 mg/kg/injection, schedule: Q01DX001 (ip), vehicle: Klucel (hydroxypropylcellulose) (HPC)
[6] = dose: 200.0 mg/kg/injection, schedule: Q01DX001 (ip), vehicle: Klucel (hydroxypropylcellulose) (HPC)
[7] = dose: 400.0 mg/kg/injection, schedule: Q01DX001 (ip), vehicle: Klucel (hydroxypropylcellulose) (HPC)
[8] = dose: 100.0 mg/kg/injection, schedule: Q04DX003 (ip), vehicle: saline with Tween-80
[9] = dose: 200.0 mg/kg/injection, schedule: Q04DX003 (ip), vehicle: saline with Tween-80
[10] = dose: 400.0 mg/kg/injection, schedule: Q04DX003 (ip), vehicle: saline with Tween-80
[11] = dose: 100.0 mg/kg/injection, schedule: Q04DX002 (ip), vehicle: saline with Tween-80
[12] = dose: 200.0 mg/kg/injection, schedule: Q04DX002 (ip), vehicle: saline with Tween-80

Measured: T/C

C1=CC(=P(c2ccccc2)(c2ccccc2)c2ccccc2)C=C1
inactive: dose: 30.0 mg/kg/injection, schedule: Q01DX015 (ip), vehicle: saline 95 % of control | [1] 92 % of control | dose: 60.0 mg/kg/injection, schedule: Q01DX015 (ip), vehicle: saline 89 % of control | [2] 97 % of control | dose: 120.0 mg/kg/injection, schedule: Q01DX015 (ip), vehicle: saline 91 % of control | [3] 98 % of control | dose: 240.0 mg/kg/injection, schedule: Q01DX015 (ip), vehicle: saline 91 % of control | [4] 97 % of control

CCCCCCCCCCCCC(CCCCCCCCCCCC)c1ccccc1
inactive: [5] 112 % of control | [6] 100 % of control | [7] 96 % of control

O=C(Cc1cc2c(cc1[N+](=O)[O-])OCO2)c1c[nH]c2ccccc12
inactive: [1] 98 % of control | [2] 98 % of control | [3] 95 % of control | [4] 101 % of control

Clc1ccc(/C=N\N2CCCCCC2)cc1
inactive: [5] 105 % of control | [6] 100 % of control | [7] 98 % of control

C=CC[P+](c1ccccc1)(c1ccccc1)c1ccccc1
inactive: dose: 1.56 mg/kg/injection, schedule: Q01DX009 (ip), vehicle: Klucel (hydroxypropylcellulose) (HPC) 103 % of control | dose: 3.12 mg/kg/injection, schedule: Q01DX009 (ip), vehicle: Klucel (hydroxypropylcellulose) (HPC) 101 % of control | dose: 5.0 mg/kg/injection, schedule: Q01DX001 (ip), vehicle: saline 104 % of control | dose: 6.25 mg/kg/injection, schedule: Q01DX009 (ip), vehicle: Klucel (hydroxypropylcellulose) (HPC) 94 % of control | dose: 9.5 mg/kg/injection, schedule: Q01DX001 (ip), vehicle: other 107 % of control | dose: 10.0 mg/kg/injection, schedule: Q01DX001 (ip), vehicle: saline 98 % of control | dose: 12.5 mg/kg/injection, schedule: Q01DX009 (ip), vehicle: Klucel (hydroxypropylcellulose) (HPC) 103 % of control | dose: 19.0 mg/kg/injection, schedule: Q01DX001 (ip), vehicle: other 100 % of control | dose: 20.0 mg/kg/injection, schedule: Q01DX001 (ip), vehicle: saline 102 % of control | dose: 38.0 mg/kg/injection, schedule: Q01DX001 (ip), vehicle: other 102 % of control

Nc1[nH]c(=S)nc2c1ncn2C1CCCC1
inactive: dose: 100.0 mg/kg/injection, schedule: Q01DX001 (ip), vehicle: other 93 % of control | dose: 200.0 mg/kg/injection, schedule: Q01DX001 (ip), vehicle: other 93 % of control

CN(C)C(=O)Nc1cccc(OC(=O)Nc2ccccc2)c1
inactive: [8] 104 % of control | [9] 96 % of control | [10] 96 % of control

NC(N)=N/N=C\c1ccccc1/C=N/N=C(N)N
inactive: dose: 15.0 mg/kg/injection, schedule: Q01DX Z (ip), vehicle: saline 111 % of control | dose: 15.0 mg/kg/injection, schedule: Q01DX Z (oral), vehicle: saline 116 % of control | dose: 30.0 mg/kg/injection, schedule: Q01DX Z (ip), vehicle: saline 110 % of control | dose: 30.0 mg/kg/injection, schedule: Q01DX Z (oral), vehicle: saline 111 % of control | dose: 60.0 mg/kg/injection, schedule: Q01DX Z (oral), vehicle: saline 102 % of control | dose: 120.0 mg/kg/injection, schedule: Q01DX Z (oral), vehicle: saline 111 % of control

CNC(=S)Nc1c(C)cc(C)cc1C
inactive: dose: 25.0 mg/kg/injection, schedule: Q01DX009 (ip), vehicle: saline with Tween-80 98 % of control and 108 % of control | dose: 50.0 mg/kg/injection, schedule: Q01DX001 (ip), vehicle: saline with Tween-80 100 % of control | dose: 50.0 mg/kg/injection, schedule: Q01DX009 (ip), vehicle: saline with Tween-80 98 % of control and 105 % of control | dose: 100.0 mg/kg/injection, schedule: Q01DX001 (ip), vehicle: saline with Tween-80 91 % of control | dose: 100.0 mg/kg/injection, schedule: Q01DX009 (ip), vehicle: saline with Tween-80 97 % of control and 92 % of control | [11] 104 % of control and 106 % of control | [8] 104 % of control | dose: 200.0 mg/kg/injection, schedule: Q01DX001 (ip), vehicle: saline with Tween-80 96 % of control | [12] 96 % of control | [9] 94 % of control | [10] 95 % of control

CC1CCC2C(C1)N(c1ccccc1)OC2(C)C (stereo unspecified)
inactive: dose: 100.0 mg/kg/injection, schedule: Q04DX003 (ip), vehicle: Klucel (hydroxypropylcellulose) (HPC) 100 % of control | dose: 200.0 mg/kg/injection, schedule: Q04DX003 (ip), vehicle: Klucel (hydroxypropylcellulose) (HPC) 94 % of control | dose: 400.0 mg/kg/injection, schedule: Q04DX003 (ip), vehicle: Klucel (hydroxypropylcellulose) (HPC) 102 % of control

C[C@]12CCC(=O)C=C1CC[C@@H]1[C@@H]2[C@@H](O)C[C@@]2(C)[C@H]1CC[C@]2(O)C(=O)CO
inactive: dose: 12.0 mg/kg/injection, schedule: Q01DX015 (sc), vehicle: steriod suspending solution 100 % of control | dose: 25.0 mg/kg/injection, schedule: Q01DX015 (sc), vehicle: steriod suspending solution 100 % of control | dose: 50.0 mg/kg/injection, schedule: Q01DX015 (sc), vehicle: steriod suspending solution 102 % of control | dose: 100.0 mg/kg/injection, schedule: Q01DX001 (sc), vehicle: steriod suspending solution 102 % of control | dose: 100.0 mg/kg/injection, schedule: Q01DX Z (sc), vehicle: steriod suspending solution 101 % of control | dose: 200.0 mg/kg/injection, schedule: Q01DX001 (sc), vehicle: steriod suspending solution 108 % of control | dose: 200.0 mg/kg/injection, schedule: Q01DX Z (sc), vehicle: steriod suspending solution 102 % of control | dose: 400.0 mg/kg/injection, schedule: Q01DX001 (sc), vehicle: steriod suspending solution 108 % of control | dose: 400.0 mg/kg/injection, schedule: Q01DX Z (sc), vehicle: steriod suspending solution 102 % of control | dose: 800.0 mg/kg/injection, schedule: Q01DX Z (sc), vehicle: steriod suspending solution 94 % of control | dose: 1000.0 mg/kg/injection, schedule: Q01DX015 (sc), vehicle: steriod suspending solution 104 % of control

O=C1/C(=C/c2ccccc2)SC(=S)N1C1OC(CO)C(O)C(O)C1O (stereo unspecified)
inactive: dose: 12.5 mg/kg/injection, schedule: Q01DX005 (ip), vehicle: other 98 % of control | dose: 25.0 mg/kg/injection, schedule: Q01DX005 (ip), vehicle: other 98 % of control | dose: 50.0 mg/kg/injection, schedule: Q01DX005 (ip), vehicle: other 106 % of control | dose: 100.0 mg/kg/injection, schedule: Q01DX005 (ip), vehicle: other 101 % of control | dose: 200.0 mg/kg/injection, schedule: Q01DX005 (ip), vehicle: other 98 % of control

CC(C)NC(=O)Oc1ccc(Br)cc1Br
inactive: dose: 100.0 mg/kg/injection, schedule: Q01DX009 (ip), vehicle: Klucel (hydroxypropylcellulose) (HPC) 109 % of control | dose: 200.0 mg/kg/injection, schedule: Q01DX009 (ip), vehicle: Klucel (hydroxypropylcellulose) (HPC) 104 % of control | dose: 400.0 mg/kg/injection, schedule: Q01DX009 (ip), vehicle: Klucel (hydroxypropylcellulose) (HPC) 113 % of control

CCCc1nc2ccccc2c(=O)n1/N=C/c1ccc(OC)cc1
inactive: dose: 100.0 mg/kg/injection, schedule: Q04DX002 (ip), vehicle: Klucel (hydroxypropylcellulose) (HPC) 96 % of control | dose: 200.0 mg/kg/injection, schedule: Q04DX002 (ip), vehicle: Klucel (hydroxypropylcellulose) (HPC) 99 % of control | dose: 400.0 mg/kg/injection, schedule: Q04DX002 (ip), vehicle: Klucel (hydroxypropylcellulose) (HPC) 101 % of control

CCCCCCCCCCCCCCCCC(C)(O)C#CC(C)(O)CCCCCCCCCCCCCCCC (stereo unspecified)
inactive: dose: 100.0 mg/kg/injection, schedule: Q01DX009 (ip), vehicle: other 101 % of control | [11] 101 % of control | dose: 200.0 mg/kg/injection, schedule: Q01DX009 (ip), vehicle: other 97 % of control | [12] 90 % of control | dose: 400.0 mg/kg/injection, schedule: Q01DX009 (ip), vehicle: other 101 % of control | dose: 400.0 mg/kg/injection, schedule: Q04DX002 (ip), vehicle: saline with Tween-80 97 % of control
